Read-outs that look alike come from different tables or passages of the source.
Experiments:
JAK2 = JAK2 (Homo sapiens, UniProt O60674); test: JAK2 kinase inhibition, Calliper assay; type: biochemical; conditions: physiological ATP concentration of 5 mM
[1] = Plasma and skin exposure in treated AA mice; conditions: AA mice
[2] = test system: Human Peripheral Blood Mononuclear Cells (PBMCs); test: Cytokine release from anti-CD3-stimulated human PBMCs; type: cell-based; conditions: anti-CD3, 40-48h, 4 healthy donors, linear regression
Method: Human Peripheral Blood Mononuclear Cells (PBMCs) were isolated by Sepmate technique (Stemcell Technologies) from heparinized venous blood from healthy volunteers. Primary human CD8^+ T‐cells were further isolated using a CD8^+ T cell Isolation Kit according to protocol (Miltenyi Biotec). Experiments were approved by the local ethical committee in Gothenburg (033‐11).
Soluble anti‐CD28 were added to the CD8^+ cultures to facilitate co‐stimulation. After 40–48 h, supernatants were harvested for mediator analysis and the cells were washed and resuspended in RLT buffer (Qiagen) for RNA isolation.
Analysis of human cytokine panels was carried out using a Luminex assay kit from Merck Millipore (Cat# HCYTMAG‐60K‐PX41) and Mesoscale Discovery (MSD) immunoassay kits (Cat# K211AEB‐2 and K15049D) as recommended in the respective supplier protocols.

IL‐13, STAT6‐Luc = test: IL-13-induced JAK-STAT6-luciferase assay in U937 monocytes; type: cell-based; conditions: Homo sapiens, U-937, interleukin at EC80
[3] = test system: C3H/HeJ mouse model of AA; test: Taqman gene expression in mouse skin; type: in vivo; conditions: Mean±SEM
Method: RNA was prepared according to a standard phenol‐chloroform total RNA extraction method where skin samples were homogenized in QIAzol® Lysis Reagent (QIAGEN Sciences, Maryland 20847, USA), added chloroform, vortexed and centrifuged for phase separation. The RNA containing phase was ethanol precipitated and purified on an Applied Biosystems 6100 Nucleic Acid Prep Station. RNA integrity was measured on the Fragment Analyzer platform (AATI, IA, USA) using standard sensitivity RNA analysis kit.
cDNA was synthesized from mouse skin RNA using the High Capacity cDNA Reverse Transcription Kit from Life Technologies. Gene expression was performed on the QuantStudio™ 7 Flex Real‐Time PCR System (Applied Biosystems, Foster City, CA, USA) using custom made TaqMan® Array Micro Fluidic Cards. Results were analyzed with the QuantStudio™ 7 Flex Real‐Time PCR System software. Detailed description in Supplementary materials.
RNA extraction: Frozen 20 mg skin biopsies were transferred to 2 mL eppendorf tubes placed on dry ice, added 5 stainless steel beads of 3 mm ø and 750 μL cold QIAzol® Lysis Reagent (QIAGEN Sciences, Maryland 20847, USA). The samples were mounted on a Mixer Mill Tissue Lyser (Retsch GmbH, Haan, Germany) and homogenized for 2 x 5 minutes at 30 Hz, then centrifuged for 1 minute at 6000g, added 150 μL CHCl3, vigorously shaken for 15 seconds and incubated for 3 minutes. After 15 minutes centrifugation at 6000g the aqueous RNA containing phase was transferred to a 96 deep well plate and mixed with an equal volume of 70 % Ethanol. The RNA-Ethanol precipitate was purified and DNase treated on a 6100 Nucleic Acid Prep Station (Applied Biosystems, Foster City, CA, USA). Total RNA was eluted in 100 μL Elution Buffer (Applied Biosystems, Foster City, CA, USA) and the concentrations were measured on the NanoDrop ND-1000 Spectrophotometer (Thermo Fischer Scientific, Wilmington, DE, USA) at 260 nm.
cDNA synthesis: cDNA synthesis was performed using the High Capacity cDNA Reverse Transcription Kit from Life Technologies (Applied Biosystems, Foster City, CA, USA) according to the manufacturer´s instructions. The cDNA samples were diluted with RNase free water to 100 ng/µL, in a later (experiment) to 200 ng/µL.
The gene expression results are shown as log2 Fold Change. With the calibrator group close to zero, up- or down regulation of the target genes are visualized as positive or negative values, making it easier to assess the size of, in particular, the down regulations.

[4] = test system: C3H/HeJ mouse model of AA; test: Cellularity and flow cytometry of spleen and skin draining lymph nodes; type: in vivo; conditions: AA mice
Method: Cutaneous lymph nodes and spleens from mice treated either orally or topically (treated and untreated side, respectively) were pooled and minced in DPBS/2% FBS/2 mM EDTA, filtered through […] strainers and spun at 350 g for 5 min. Blood was collected in EDTA‐coated tubes and red blood cells were lysed using BD FACS lysing solution (as was red blood cells from spleen single cell suspensions). Cell differential were obtained from haematology analyzer Sysmex XE‐2100 (Sysmex Corporation, Japan). Equal cell numbers for each sample were incubated with anti‐mouse CD16/CD32 block to prevent unspecific binding and then stained for 30 min at 4°C with the following anti‐mouse antibodies (all from BD); FITC CD3e (145‐2C11), APC‐Cy7 TCRβ (H‐57‐597), BV510 or BV786 CD8α (53‐6.7), BV711 NKG2D (Cx5), BUV395 CD4 (GK1.5), BV711 or BV605 CD44 (IM7), BUV395 CD45 (30‐F11), PerCP‐Cy5.5 CD19 (1D3) and PE‐Cy7 CD62L (MEL‐14). […] The cells were analyzed on a BD LSRII flow cytometer and analysis was performed with FlowJo (Tree Star) software.

[5] = C3H/HeJ, mouse, in vivo
[6] = topical cream application (local)

Chain of JAK2 (O60674 whole entry, species assumed): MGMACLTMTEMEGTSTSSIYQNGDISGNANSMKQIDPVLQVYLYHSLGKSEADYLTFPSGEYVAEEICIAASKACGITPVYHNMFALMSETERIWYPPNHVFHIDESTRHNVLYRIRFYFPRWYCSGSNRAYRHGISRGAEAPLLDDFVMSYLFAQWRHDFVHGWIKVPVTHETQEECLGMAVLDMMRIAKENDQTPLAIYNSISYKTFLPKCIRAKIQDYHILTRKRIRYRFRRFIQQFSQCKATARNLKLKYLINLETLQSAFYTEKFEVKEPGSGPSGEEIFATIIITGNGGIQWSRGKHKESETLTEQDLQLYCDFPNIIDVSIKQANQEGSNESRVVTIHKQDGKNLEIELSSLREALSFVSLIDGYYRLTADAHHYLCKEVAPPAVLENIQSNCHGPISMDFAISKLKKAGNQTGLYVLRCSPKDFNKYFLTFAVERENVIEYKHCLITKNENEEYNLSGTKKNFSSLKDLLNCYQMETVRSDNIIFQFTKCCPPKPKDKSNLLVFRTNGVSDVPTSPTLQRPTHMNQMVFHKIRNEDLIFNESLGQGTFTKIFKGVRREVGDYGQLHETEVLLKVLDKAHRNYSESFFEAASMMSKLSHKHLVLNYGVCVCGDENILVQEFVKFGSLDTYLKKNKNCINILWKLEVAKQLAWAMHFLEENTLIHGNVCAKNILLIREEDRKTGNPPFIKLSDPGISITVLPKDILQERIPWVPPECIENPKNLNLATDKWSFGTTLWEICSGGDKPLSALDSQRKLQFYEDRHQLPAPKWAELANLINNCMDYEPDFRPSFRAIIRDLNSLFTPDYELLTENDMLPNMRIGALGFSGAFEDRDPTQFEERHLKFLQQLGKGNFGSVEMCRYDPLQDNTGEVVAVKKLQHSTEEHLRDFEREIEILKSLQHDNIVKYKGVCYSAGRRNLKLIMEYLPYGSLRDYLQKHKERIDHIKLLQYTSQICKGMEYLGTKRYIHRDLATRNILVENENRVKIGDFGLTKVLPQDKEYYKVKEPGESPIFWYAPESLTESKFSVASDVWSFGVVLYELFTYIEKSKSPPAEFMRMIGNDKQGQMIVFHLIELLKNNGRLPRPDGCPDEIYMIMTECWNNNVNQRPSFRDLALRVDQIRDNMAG

In the case of `Cc1cnc(Nc2cccnc2F)nc1-c1c[nH]c2c(NC(=O)[C@@H](C)N3CCN(C)CC3)cccc12` [Cmpd A], the IC50 (JAK2) is reported as 18 µM, the “estimated average free exposure in plasma over IC50” value ([1]; oral daily servings (systemic)) is reported as 1.2 fold IC50 and the “estimated average free exposure in skin over IC50” value ([1]; oral daily servings (systemic)) is reported as 0.1 fold IC50. For the same molecule, the “release of TNFα, IL-1RA, IP-10, IL-17 and MIP-1β from PBMC compared with Ruxo and Tofa” value [2] was “significantly differently released”, the IC50 (IL‐13, STAT6‐Luc) was 0.12 µM and the “CD8a expression in skin, fold change (log2) from AA” value ([3]; 8w off Tx) was -0.32 ± 0.45 (0.97, n=6) log2 fold change. The “CXCL9 expression in skin, fold change (log2) from AA” value ([3]; 8w off Tx) was -0.33 ± 0.73 (0.96, n=6) log2 fold change, the “CXCL10 expression in skin, fold change (log2) from AA” value ([3]; 8w off Tx) was -0.32 ± 0.61 (0.97, n=6) log2 fold change and the “CXCL11 expression in skin, fold change (log2) from AA” value ([3]; 8w off Tx) was 0.43 ± 0.73 (0.93, n=6) log2 fold change. The “GZMB expression in skin, fold change (log2) from AA” value ([3]; 8w off Tx) was -0.81 ± 0.73 (0.099, n=3) log2 fold change, the “ICOS expression in skin, fold change (log2) from AA” value ([3]; 8w off Tx) was -0.05 ± 0.09 (0.34, n=2) log2 fold change and the “Krt32 expression in skin, fold change (log2) from AA” value ([3]; 8w off Tx) was -1.44 ± 0.98 (0.062, n=6) log2 fold change. The “MX1 expression in skin, fold change (log2) from AA” value ([3]; 8w off Tx) was -0.37 ± 0.41 (0.67, n=6) log2 fold change, the “STAT1 expression in skin, fold change (log2) from AA” value ([3]; 8w off Tx) was -0.30 ± 0.28 (0.67, n=6) log2 fold change and the “CD8a expression in skin, fold change (log2) from AA” value ([3]; Systemic JAKi (oral, 4 weeks)) was -2.56 ± 0.24 (<0.001, n=6) log2 fold change. The “CXCL9 expression in skin, fold change (log2) from AA” value ([3]; Systemic JAKi (oral, 4 weeks)) was -3.83 ± 0.47 (<0.001, n=6) log2 fold change, the “CXCL10 expression in skin, fold change (log2) from AA” value ([3]; Systemic JAKi (oral, 4 weeks)) was -3.28 ± 0.42 (<0.001, n=5) log2 fold change and the “CXCL11 expression in skin, fold change (log2) from AA” value ([3]; Systemic JAKi (oral, 4 weeks)) was -4.32 ± 0.36 (<0.001, n=5) log2 fold change. The “ICOS expression in skin, fold change (log2) from AA” value ([3]; Systemic JAKi (oral, 4 weeks)) was -1.05 ± 0.12 (0.0083, n=4) log2 fold change, the “Krt32 expression in skin, fold change (log2) from AA” value ([3]; Systemic JAKi (oral, 4 weeks)) was -3.16 ± 0.13 (<0.001, n=6) log2 fold change and the “MX1 expression in skin, fold change (log2) from AA” value ([3]; Systemic JAKi (oral, 4 weeks)) was -3.71 ± 0.21 (<0.001, n=6) log2 fold change. The “STAT1 expression in skin, fold change (log2) from AA” value ([3]; Systemic JAKi (oral, 4 weeks)) was -2.29 ± 0.25 (<0.001, n=6) log2 fold change.
In the case of `Cc1cnc(Nc2cc(N3C[C@@H]4C[C@H]3CN4C)cnc2F)nc1N[C@H](C)[C@H](C)CO` [Cmpd B, (2S,3R)-3-{[2-({2-fluoro-5-[(1S,4S)-5-methyl-2,5-diazabicyclo[2.2.1]heptan-2-yl]pyridin-3-yl}amino)-5-methylpyrimidin-4-yl]amino}-2-methylbutan-1-ol], the IC50 (JAK2) is reported as over 30 µM, the “estimated average free exposure in plasma over IC50” value [1, 6] is reported as 0.02 fold IC50 and the “estimated average free exposure in skin over IC50” value [1, 6] is reported as 1.9 fold IC50. For the same molecule, the IC50 (IL‐13, STAT6‐Luc) was 0.1 µM, the “CD8a expression in skin, fold change (log2) from AA” value ([3]; Local JAK1i (treated side)) was 1.06 ± 0.63 (0.245, n=6) log2 fold change and the “CXCL9 expression in skin, fold change (log2) from AA” value ([3]; Local JAK1i (treated side)) was 0.60 ± 0.50 (0.69, n=6) log2 fold change. For the same molecule, the “CXCL10 expression in skin, fold change (log2) from AA” value ([3]; Local JAK1i (treated side)) was 0.23 ± 0.49 (0.99, n=6) log2 fold change, the “CXCL11 expression in skin, fold change (log2) from AA” value ([3]; Local JAK1i (treated side)) was 0.06 ± 0.63 (0.99, n=6) log2 fold change and the “GZMB expression in skin, fold change (log2) from AA” value ([3]; Local JAK1i (treated side)) was 0.93 ± 0.35 (0.45, n=5) log2 fold change. The “ICOS expression in skin, fold change (log2) from AA” value ([3]; Local JAK1i (treated side)) was 1.33 ± 0.18 (<0.001, n=4) log2 fold change, the “Krt32 expression in skin, fold change (log2) from AA” value ([3]; Local JAK1i (treated side)) was -0.81 ± 0.70 (0.49, n=6) log2 fold change and the “MX1 expression in skin, fold change (log2) from AA” value ([3]; Local JAK1i (treated side)) was 0.03 ± 0.38 (0.99, n=6) log2 fold change. For the same molecule, the “STAT1 expression in skin, fold change (log2) from AA” value ([3]; Local JAK1i (treated side)) was 1.09 ± 0.29 (<0.001, n=6) log2 fold change, the “CD8a expression in skin, fold change (log2) from AA” value ([3]; Local JAK1i (untreated side)) was 1.02 ± 0.71 (0.80, n=6) log2 fold change and the “CXCL9 expression in skin, fold change (log2) from AA” value ([3]; Local JAK1i (untreated side)) was 0.82 ± 0.65 (0.41, n=6) log2 fold change. For the same molecule, the “CXCL10 expression in skin, fold change (log2) from AA” value ([3]; Local JAK1i (untreated side)) was -0.03 ± 0.74 (0.99, n=6) log2 fold change, the “CXCL11 expression in skin, fold change (log2) from AA” value ([3]; Local JAK1i (untreated side)) was 0.08 ± 0.76 (0.99, n=6) log2 fold change and the “GZMB expression in skin, fold change (log2) from AA” value ([3]; Local JAK1i (untreated side)) was 0.77 ± 0.37 (0.64, n=5) log2 fold change. The “ICOS expression in skin, fold change (log2) from AA” value ([3]; Local JAK1i (untreated side)) was 1.06 ± 0.29 (0.0018, n=5) log2 fold change, the “Krt32 expression in skin, fold change (log2) from AA” value ([3]; Local JAK1i (untreated side)) was -0.64 ± 0.71 (0.70, n=6) log2 fold change and the “MX1 expression in skin, fold change (log2) from AA” value ([3]; Local JAK1i (untreated side)) was 0.02 ± 0.41 (0.99, n=6) log2 fold change. For the same molecule, the “STAT1 expression in skin, fold change (log2) from AA” value ([3]; Local JAK1i (untreated side)) was 1.07 ± 0.29 (<0.001, n=6) log2 fold change.
In the case of `COCC(C(=O)Nc1cccc2c(-c3nc(Nc4cccc(S(C)(=O)=O)c4F)ncc3F)c[nH]c12)N1CCN(C)CC1` (centres unmarked) [Cmpd C], the “hypercellularity of skin draining LNs and spleen” value ([4]; systemic (oral 12.5 mg/kg/day, 2 weeks)) is reported as “drastically reduced”, the “hypercellularity of skin draining LNs and spleen” value ([4]; topical treatment (0.01% cream, 2 weeks)) is reported as “only marginally affected” and the “estimated average free exposure in plasma over IC50” value [5] is reported as 0.02 fold IC50. For the same molecule, the “estimated average free exposure in skin over IC50” value [5] was 0.43 fold IC50, the “estimated average free exposure in plasma over IC50” value ([5]; po, 2 weeks) was 1.4 fold IC50 and the “estimated average free exposure in skin over IC50” value ([5]; po, 2 weeks) was 0.5 fold IC50.

— publication PMC10233092, “Selective Janus kinase 1 inhibition resolves inflammation and restores hair growth offering a viable treatment option for alopecia areata” (Skin Health and Disease, 2023)
